These results are taken from PubChem BioAssay (NCI).

SMILES strings stand for the structures.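 Assay format: 96-well plates, 48-hour exposure. Definition used: TGI = concentration required for complete inhibition of growth.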 Where a SMILES comes first, the peptide text is derived from it. The star is where a group is joined. Boc = CC(C)(C)OC(=O)*

The test system of one test is HOP-18 NSCLC. The experiment in a line: NCI anticancer screen, dose series, 48 h.
The molecule `COc1ccc2c(c1)C(=O)C1CC(=O)CCC21` (configuration not stated) displayed a TGI of over 100 µM.
The same measure, in the same setting: with `COc1cccc(NC(=O)CSc2nnc(-c3ccc(NC(C)=O)cc3)o2)c1` the figure was over 100 µM.
On the same count and under the same terms, for `Clc1ccc(Nc2nc3ccccc3nc2-c2cccs2)cc1Cl` the value was over 100 µM.
The same measure, in the same setting: for `CCn1c2ccccc2c2ccc3c(c21)C(=O)C=CC3=O` the value was 23.2 µM.
On to `O=c1nc(NC2CCCCO2)ccn1CCO` (configuration not stated), for which the TGI is over 100 µM.
Same read-out and setting: with `COC(=O)c1onc(-c2c(OC)cc(OC)cc2OC)c1C(=O)OC` the figure was over 100 µM; with `CCCCCCCOc1ccc(/C=C\c2cc[n+](CCCCCCCC[n+]3ccc(/C=C\c4ccc(OCCCCCCC)cc4)cc3)cc2)cc1`, 28.4 µM.
The same measure, in the same setting: with `CC(C)(C)OC(=O)NC(Cc1ccc(O)cc1)C(=O)N1CCCC1C(=O)O` (stereo not drawn) (Boc-Tyr-Pro-OH; configuration not given here) the figure was over 100 µM.
Same read-out and setting: with `O=C(O)c1ccc(C2COc3ccc(Cl)cc3C2)cc1` (configuration not stated) the figure was over 100 µM; with `CC(=O)NC(CCCNC(=O)N(CCCl)N=O)C(=O)NCc1ccccc1` (configuration not stated), over 100 µM; with `CC(=O)CN(Cc1cc(C)c2c(c1)c1ccccc1n2Cc1ccccc1)S(=O)(=O)c1ccc(C)cc1`, over 100 µM.
`O=C1NC(=O)C2C(=O)NC(=O)C1C2c1c(Cl)cccc1Cl` (configuration not stated): the TGI is over 100 µM.

The next test relates to M19-MEL melanoma. Nature of the test: NCI anticancer screen, dose series, 48 h.
Turning to `COc1ccc2c(c1)C(=O)C1CC(=O)CCC21` (configuration not stated), the TGI was over 100 µM.
On the same count and under the same terms, for `COc1cccc(NC(=O)CSc2nnc(-c3ccc(NC(C)=O)cc3)o2)c1` the value was over 100 µM.
Same read-out and setting: for `Clc1ccc(Nc2nc3ccccc3nc2-c2cccs2)cc1Cl` the value was over 100 µM.
On the same count and under the same terms, for `CCn1c2ccccc2c2ccc3c(c21)C(=O)C=CC3=O` the value was 25.8 µM.
Consider `O=c1nc(NC2CCCCO2)ccn1CCO` (configuration not stated), for which the TGI is over 100 µM.
Same read-out and setting: for `COC(=O)c1onc(-c2c(OC)cc(OC)cc2OC)c1C(=O)OC` the value was over 100 µM; for `CCCCCCCOc1ccc(/C=C\c2cc[n+](CCCCCCCC[n+]3ccc(/C=C\c4ccc(OCCCCCCC)cc4)cc3)cc2)cc1`, over 100 µM.
`CC(C)(C)OC(=O)NC(Cc1ccc(O)cc1)C(=O)N1CCCC1C(=O)O` (stereo not drawn) (Boc-Tyr-Pro-OH; configuration not given here) showed a TGI of over 100 µM.
In turn, `O=C(O)c1ccc(C2COc3ccc(Cl)cc3C2)cc1` (configuration not stated) came in with a TGI of over 100 µM.
Same read-out and setting: with `CC(=O)NC(CCCNC(=O)N(CCCl)N=O)C(=O)NCc1ccccc1` (configuration not stated) the figure was over 100 µM; with `COc1cccc(OC)c1C(=O)OCc1ccccc1`, over 100 µM; with `Cc1ccc(/C=C/C(=O)C(C)(C)CN2CCCCC2)cc1`, 31.1 µM.
Same read-out and setting: with `CC(=O)CN(Cc1cc(C)c2c(c1)c1ccccc1n2Cc1ccccc1)S(=O)(=O)c1ccc(C)cc1` the figure was over 100 µM; with `O=C1OC(Cc2ccccc2)(N2CCCC2=O)C1c1ccccc1` (configuration not stated), over 100 µM; with `CC(=O)C(CN(CC(C)C)CC(C)C)C(c1ccccc1)c1c(O)c2ccccc2oc1=O` (configuration not stated), over 100 µM.
The same measure, in the same setting: for `CC1(C)OC(=O)C(C#N)=C1/C=C/c1coc2ccc(Cl)cc2c1=O` the value was over 100 µM.

In a further test the test system is SNB-78 CNS. Nature of the test: NCI anticancer screen, dose series, 48 h.
Molecule `COc1ccc2c(c1)C(=O)C1CC(=O)CCC21` (configuration not stated) came in with a TGI of over 100 µM.
In the case of `COc1cccc(NC(=O)CSc2nnc(-c3ccc(NC(C)=O)cc3)o2)c1`, the TGI was over 100 µM.
Same read-out and setting: for `Clc1ccc(Nc2nc3ccccc3nc2-c2cccs2)cc1Cl` the value was over 100 µM.
On the same count and under the same terms, with `CCn1c2ccccc2c2ccc3c(c21)C(=O)C=CC3=O` the figure was 57.5 µM; with `O=c1nc(NC2CCCCO2)ccn1CCO` (configuration not stated), over 100 µM; with `COC(=O)c1onc(-c2c(OC)cc(OC)cc2OC)c1C(=O)OC`, over 100 µM.
Still for that read-out and setting: for `CCCCCCCOc1ccc(/C=C\c2cc[n+](CCCCCCCC[n+]3ccc(/C=C\c4ccc(OCCCCCCC)cc4)cc3)cc2)cc1` the value was over 100 µM.
As for `CC(C)(C)OC(=O)NC(Cc1ccc(O)cc1)C(=O)N1CCCC1C(=O)O` (stereo not drawn) (Boc-Tyr-Pro-OH; configuration not given here), the TGI is over 100 µM.
On the same count and under the same terms, for `O=C(O)c1ccc(C2COc3ccc(Cl)cc3C2)cc1` (configuration not stated) the value was over 100 µM; for `Cc1ccc(/C=C/C(=O)C(C)(C)CN2CCCCC2)cc1`, 29.7 µM; for `CC(=O)CN(Cc1cc(C)c2c(c1)c1ccccc1n2Cc1ccccc1)S(=O)(=O)c1ccc(C)cc1`, over 100 µM.
Still for that read-out and setting: with `O=C1NC(=O)C2C(=O)NC(=O)C1C2c1c(Cl)cccc1Cl` (configuration not stated) the figure was over 100 µM.
The molecule `O=C1OC(Cc2ccccc2)(N2CCCC2=O)C1c1ccccc1` (configuration not stated) displayed a TGI of over 100 µM.
Same read-out and setting: with `CC1(C)OC(=O)C(C#N)=C1/C=C/c1coc2ccc(Cl)cc2c1=O` the figure was over 100 µM.

For the next test, the system named is DLD-1 colon. The experiment in a line: NCI anticancer screen, dose series, 48 h.
In turn, `COc1ccc2c(c1)C(=O)C1CC(=O)CCC21` (configuration not stated) displayed a TGI of over 100 µM.
Still for that read-out and setting: for `COc1cccc(NC(=O)CSc2nnc(-c3ccc(NC(C)=O)cc3)o2)c1` the value was over 100 µM.
The same measure, in the same setting: with `Clc1ccc(Nc2nc3ccccc3nc2-c2cccs2)cc1Cl` the figure was over 100 µM.
Same read-out and setting: for `CCn1c2ccccc2c2ccc3c(c21)C(=O)C=CC3=O` the value was 14.9 µM; for `O=c1nc(NC2CCCCO2)ccn1CCO` (configuration not stated), over 100 µM; for `COC(=O)c1onc(-c2c(OC)cc(OC)cc2OC)c1C(=O)OC`, over 100 µM.
`CCCCCCCOc1ccc(/C=C\c2cc[n+](CCCCCCCC[n+]3ccc(/C=C\c4ccc(OCCCCCCC)cc4)cc3)cc2)cc1` displayed a TGI of 67 µM.
The same measure, in the same setting: for `CC(C)(C)OC(=O)NC(Cc1ccc(O)cc1)C(=O)N1CCCC1C(=O)O` (stereo not drawn) (Boc-Tyr-Pro-OH; configuration not given here) the value was over 100 µM; for `O=C(O)c1ccc(C2COc3ccc(Cl)cc3C2)cc1` (configuration not stated), over 100 µM.
The same measure, in the same setting: for `CC(=O)NC(CCCNC(=O)N(CCCl)N=O)C(=O)NCc1ccccc1` (configuration not stated) the value was over 100 µM; for `COc1cccc(OC)c1C(=O)OCc1ccccc1`, over 100 µM.
Still for that read-out and setting: with `CC(=O)CN(Cc1cc(C)c2c(c1)c1ccccc1n2Cc1ccccc1)S(=O)(=O)c1ccc(C)cc1` the figure was over 100 µM; with `O=C1NC(=O)C2C(=O)NC(=O)C1C2c1c(Cl)cccc1Cl` (configuration not stated), over 60.8 µM; with `O=C1OC(Cc2ccccc2)(N2CCCC2=O)C1c1ccccc1` (configuration not stated), over 100 µM.
Take `CC(=O)C(CN(CC(C)C)CC(C)C)C(c1ccccc1)c1c(O)c2ccccc2oc1=O` (configuration not stated): the TGI was over 100 µM.
The same measure, in the same setting: for `CC1(C)OC(=O)C(C#N)=C1/C=C/c1coc2ccc(Cl)cc2c1=O` the value was 98 µM.

In a further test the test system is LXFL 529 NSCLC. Nature of the test: NCI anticancer screen, dose series, 48 h.
In turn, `COc1ccc2c(c1)C(=O)C1CC(=O)CCC21` (configuration not stated) registered a TGI of over 100 µM.
Still for that read-out and setting: with `COc1cccc(NC(=O)CSc2nnc(-c3ccc(NC(C)=O)cc3)o2)c1` the figure was over 100 µM.
On the same count and under the same terms, for `Clc1ccc(Nc2nc3ccccc3nc2-c2cccs2)cc1Cl` the value was over 100 µM; for `CCn1c2ccccc2c2ccc3c(c21)C(=O)C=CC3=O`, 3.56 µM.
